According to patent publication US9724388B2, “FGF-18 compound dosing regimen” (MERCK PATENT GMBH, priority 2014, dated 2017):
Where two headings read alike, the source gives them in different places.

Columns and labels:
[1] = tested on: OA symptoms; details: Chevalier et al., 2009, cited from earlier work
[2] = tested on: Primary articular porcine chondrocytes; assay: Porcine chondrocyte proliferation with or without IL1α challenge; type: cell-based, pig; details: for restoration of rhFGF-18 proliferative activity in IL1α-challenged chondrocytes: anakinra 100 ng/mL with rhFGF-18 100 ng/mL, IL1α 10 ng/mL, direct and delayed treatments
Procedure: Porcine chondrocytes were isolated from the cartilage of a femoral head of a pig hip (pigs were approximately one year old). After dissection of the joints, the cartilage was harvested and digested 45 minutes with collagenase 0.25% (1/10 dilution of collagenase NBG4 2.5% in HAM's F12) at room temperature. The loosened cells were discarded and the cartilage further digested overnight with collagenase 0.1% (1/25 dilution of collagenase NBG4 2.5% in HAM's F12) at 37° C. to extract the chondrocytes. For this study, the chondrocytes were cultured in monolayer.
Primary articular porcine chondrocytes were stimulated or not with 10 ng/mL IL1α and were either treated immediately or 6 hours later with anakinra 100 ng/mL and/or trFGF-18 100 ng/mL. Each condition was performed in 4 or 6-plicates. As a control, cells were also cultured with anakinra alone, trFGF-18 alone or in the absence of any treatment (medium).
Pre-culture: After cell isolation porcine chondrocytes were inoculated at 20,000 cells/cm^2 and cultivated for one week in complete HAM's F12. Cells were then harvested with accutase, counted and used as described below.
For cells treated directly with anakinra: Chondrocytes were inoculated in a 24-well plate at 15,000 cells/well in 0.5 mL of complete HAM's F12. Then 0.25 mL of trFGF-18 400 ng/mL and/or 0.25 mL of anakinra 400 ng/mL were added to the cells. In the challenged samples, 10 μL of IL1α at 1,000 ng/mL were also added to the cells. trFGF-18, anakinra and IL1α were all diluted in complete HAM's F12. The final volume in the culture well was adjusted at 1 mL with complete HAM's F12. Final concentrations were 10 ng/mL IL1α, 100 ng/mL trFGF-18 and 100 ng/mL anakinra and the total culture time was eight days. A complete medium change was performed after four days. N=4.
For cells treated with anakinra and trFGF-18 6 hours after the IL1α challenge: Chondrocytes were inoculated in a 24-well plate at 15,000 cells/well in 1 mL of complete HAM's F12 containing or not containing IL1α 10 ng/mL. After 6 hours the medium was removed and replaced with 0.25 mL trFGF-18 400 ng/mL and/or 0.25 mL of anakinra 400 ng/mL. In the challenged samples, 0.25 mL of IL1α at 40 ng/mL was also added to the cells. trFGF-18, anakinra and IL1α were all diluted in complete HAM's F12. The final volume in the culture well was adjusted at 1 mL with complete HAM's F12. Final concentrations were 10 ng/mL IL1α, 100 ng/mL trFGF-18 and 100 ng/mL anakinra and the total culture time was eight days. A complete medium change was performed after four days. N=6.
After eight days of culture, cells were harvested with accutase and resulting cell suspensions were analyzed for cell concentration and cell viability with a ViCell™ cell analyzer (from Beckman Coulter). Statistical analysis consisted in a 1-way ANOVA followed by a Dunnett post-hoc analysis.

[3] = tested on: RA patients; details: cited from earlier work
[4] = tested on: medial meniscal tear in the right knee joint; type: in vivo, rat; details: for swelling scores vs vehicle controls: days 24-29, 31, and 36-43
Procedure: Male Lewis rats underwent surgery to induce a medial meniscal tear in the right knee joint. Animals were dosed i.a. with FGF-18 (10 μg/joint) on days 21, 28, and 35 and dosed orally with diclofenac (either 1 mg/kg or 3 mg/kg) or vehicle on days 21-23, 28-30, and 35-37, then terminated on day 42 or day 63. Serum was collected and evaluated for alpha 2 macroglobulin (α2MG) levels on days −3, 21, 42, and 63. α2MG is an inflammation serum biomarker. The link between α2MG and inflammation has already been shown (Kuribayashi et al., 2013).

anakinra: recombinant, nonglycosylated form of human interleukin-1 receptor antagonist (IL-1Ra), SEQ ID NO: 3
improvements in OA symptoms compared with placebo [1]: not significantly associated | pain versus placebo in OA ([1]; anakinra 150 mg): a tendency toward pain reduction | restoration of rhFGF-18 proliferative activity in IL1α-challenged chondrocytes [2]: fully block | restoration of rhFGF-18 proliferative activity in IL1α-challenged chondrocytes ([2]; listed as Anakinra): fully restore | effect on chondrocyte proliferation ([2]; anakinra alone, 100 ng/mL): no effect | joint damage in RA patients ([3]; Bresnihan, 2002, St. Clair): reduction in frequency and severity of joint damage | pain in RA patients ([3]; Mertens et al., 2009): pain reduction

O=C(O)Cc1ccccc1Nc1c(Cl)cccc1Cl [diclofenac, 2-(2,6-dichloranilino) phenylacetic acid]
knee caliper measurements ([4]; diclofenac 1 mg/kg orally with FGF-18, any other time point): not significantly affected | knee caliper measurements ([4]; diclofenac 1 mg/kg orally with FGF-18, day 42): significantly reduced | swelling scores vs vehicle controls ([4]; diclofenac 1 mg/kg orally with FGF-18): significantly reduced | knee caliper measurements ([4]; diclofenac 3 mg/kg orally with FGF-18, any other time point): not significantly affected | knee caliper measurements ([4]; diclofenac 3 mg/kg orally with FGF-18, day 42): significantly reduced | swelling scores vs vehicle controls ([4]; diclofenac 3 mg/kg orally with FGF-18): significantly reduced | knee swelling (clinical observations and caliper measurements) ([4]; diclofenac 1 or 3 mg/kg with FGF-18): significantly reduced
